20 compounds from patent US11518758B2, “Heteroarylaminopyrimidine amide autophagy inhibitors and methods of use thereof” (Deciphera Pharmaceuticals, LLC, priority 2019, dated 2022) can be followed below.

The target in one assay is T1, ULK2 kinase (Homo sapiens, UniProt Q8IYT8).
T1 construct: purchased Eurofins 14-772
The assay can be described thus: Biochemical assay for ULK2 (coupled pyruvate kinase/lactate dehydrogenase assay). The following applies: 9.7 nM ULK2 (Eurofins), myelin basic protein, 1 mM ATP; read-out: ULK2.2. The procedure, abridged:
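Continuous PK/LDH-coupled NADH-oxidation assay with 9.7 nM ULK2, 0.25 mg/mL myelin basic protein and 1 mM ATP in Tris pH 7.5, MgCl2, DTT buffer, 1% DMSO. A340 followed 6 h at 30° C; rates from 2-3 h window converted to % inhibition, IC50 from four-parameter fit.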

Assay [1] has as its system phospho-Serine 318 ATG13 (pATG13) in MiaPaCa-2 cells. In words: pATG13 levels of mutant KRas MiaPaCa-2 cells after treatment with ULK inhibitors in combination with trametinib (ELISA). The format is cell-based, human. The procedure: Example 178. pATG13 Levels of Mutant KRas MiaPaCa-2 Cells after Treatment with ULK Inhibitors in Combination with Trametinib
MiaPaCa-2 human pancreatic cancer cells (10000 cells/well) were added to a 384-well tissue-culture treated plate in 50 μL of pre-warmed DMEM medium supplemented with 10% characterized fetal bovine serum (Invitrogen, Carlsbad, Calif.), 100 units/mL penicillin G, 100 μg/mL streptomycin, and 2.5% Horse Serum and allowed to grow overnight at 37° C., 5% CO2, and 95% humidity. The following day, 10 μL of media containing trametinib or DMSO as a control was added to wells. The final concentration of trametinib in wells was 250 nM. A dose response of a test compound (0.6 μL per well) was added. DMSO (0.6 μL) was added to control wells. The plate was briefly shaken to mix wells and then incubated at 37° C. overnight. The next day, the media was aspirated and cells were washed with Dulbecco's Phosphate Buffered Saline (Gibco). Cells were lysed using MPER lysis buffer (Pierce, Rockford, Ill.) containing Halt Phosphatase and Protease Inhibitors (Pierce, Rockford, Ill.) and Phosphatase inhibitor cocktail 2 (Sigma, St. Louis, Mo.) at 4° C. for 10 minutes with shaking.
Cellular levels of phospho-Serine 318 ATG13 (pATG13) were measured via an ELISA method. Total ATG13 Antibody (Cell Signaling Cat #13273) was used to coat the wells. The plate was incubated at 4° C. overnight and washed with ELISA wash buffer (Biolegend Cat #421601). The wells were then blocked with assay diluent (Biolegend Cat #421203) for 1 hour at room temperature. Plate wells were washed with ELISA wash buffer. Cell lysate was added to wells and incubated at room temperature for 2 hours. Plate wells were washed with ELISA wash buffer. Biotinylated pS318-ATG13 antibody (Rockland Immunochemicals Cat #600-401-C49) was diluted in assay diluent and added to each well and incubated at room temperature for 1 hour. Plate wells were washed with ELISA wash buffer. Streptavidin linked to horseradish peroxidase (Thermo Fisher Cat #21140) was diluted in assay diluent and added to each well and incubated at room temperature for 1 hour. Plate wells were washed with ELISA wash buffer. High sensitivity TMB substrate (Biolegend Cat #421101) was added to each well and incubated at room temperature for 20 minutes. The reaction was stopped with 2N Sulfuric Acid. The plate was analyzed at on a plate reader measuring absorbance at 450 nm and 540 nm (background). Signal was calculated by first subtracting the background absorbance at 540 nm from the absorbance at 450 nm for each well. Next, the background corrected absorbance at 450 nm from blank wells was subtracted from test wells. Data was compared to control wells to determine % ATG13 phosphorylation. GraphPad Prism was used to calculate IC50 values.
On the technique in general: In an ELISA, binding on a coated surface is turned into a signal by an enzyme label.

Assay [2] relates to phospho-Serine 318 ATG13 (pATG13), ULK kinase substrate, in A549 (KRAS mutant) cells. In words: pATG13 levels of mutant KRas A549 cells after treatment with ULK inhibitors in combination with trametinib (ELISA). The format is cell-based, human. The following applies: with 250 nM trametinib. The essentials: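 A549 cells grown overnight were treated overnight at 37 °C with a dose response of test compound plus 250 nM trametinib (final) or DMSO. Lysates were assayed by sandwich ELISA, with total ATG13 capture and biotinylated pS318-ATG13 detection read at 450 nm minus 540 nm, giving % phosphorylation against control and IC50.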

T1 sequence (Q8IYT8 with tags, fused parts or gaps): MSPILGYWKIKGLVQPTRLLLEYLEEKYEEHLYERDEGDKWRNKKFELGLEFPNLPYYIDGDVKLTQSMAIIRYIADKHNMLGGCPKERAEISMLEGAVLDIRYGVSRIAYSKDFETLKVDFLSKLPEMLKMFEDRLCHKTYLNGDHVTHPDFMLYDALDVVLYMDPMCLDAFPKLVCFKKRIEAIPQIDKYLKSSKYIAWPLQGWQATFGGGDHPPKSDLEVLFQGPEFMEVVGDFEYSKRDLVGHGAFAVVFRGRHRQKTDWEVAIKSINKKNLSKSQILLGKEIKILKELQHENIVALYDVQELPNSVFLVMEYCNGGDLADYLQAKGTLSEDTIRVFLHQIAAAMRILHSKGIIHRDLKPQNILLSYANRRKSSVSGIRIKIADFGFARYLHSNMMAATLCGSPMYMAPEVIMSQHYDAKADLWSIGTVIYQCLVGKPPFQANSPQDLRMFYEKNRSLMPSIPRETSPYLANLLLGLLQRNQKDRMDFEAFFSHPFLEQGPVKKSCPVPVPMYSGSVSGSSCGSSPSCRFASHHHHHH

Regarding `CC(C)N1CCC(n2cc(Nc3ncc(C(F)(F)F)c(NCCCN4CCCCC4=O)n3)cn2)CC1` [Example 6], the IC50 was in the range of 25 to 100 nM on ULK2 kinase, 10 to 100 nM in assay [1] and 10 to 100 nM in assay [2].
As to `Cc1nn(C2CCN(C)CC2)cc1Nc1ncc(C(F)(F)F)c(NCCCN2CCCCC2=O)n1` [Example 8], the IC50 was 25 to 100 nM on ULK2 kinase and 10 to 100 nM in assay [2].
For `Cc1nn(C2CCN(C(C)C)CC2)cc1Nc1ncc(C(F)(F)F)c(NCCCN2CCCCC2=O)n1` [Example 15], the IC50 on ULK2 kinase fell in the range of 100 to 500 nM; in assay [1], 10 to 100 nM; in assay [2], 10 to 100 nM.
For the compound `Cc1nn([C@@H]2CCN(C)C2)cc1Nc1ncc(C(F)(F)F)c(NCCCN2CCCCC2=O)n1` [Example 18], the results for the IC50 (on ULK2 kinase; in assay [2]) were 25 to 100 nM and 100 to 300 nM, respectively.
In the case of `Cc1nn(CCN(C)C)cc1Nc1ncc(C(F)(F)F)c(NCCCN2CCCCC2=O)n1` [Example 21], the values for the IC50 (at ULK2 kinase; in assay [1]; in assay [2]) were 100 to 500 nM, 100 to 300 nM and 300 to 600 nM, respectively.
For `CN(C)CCn1cc(Nc2ncc(C(F)(F)F)c(NCCCN3CCCCC3=O)n2)cn1` [Example 32] the same measures were 100 to 500 nM, 10 to 100 nM and 100 to 300 nM.
For `CCc1nn(C2CCN(C)CC2)cc1Nc1ncc(Br)c(NCCCN2CCCCC2=O)n1` [Example 53], the figures for the IC50 (on ULK2 kinase; in assay [1]; in assay [2]) were 100 to 500 nM, 100 to 300 nM and 100 to 300 nM, respectively.
`Cc1nn([C@H]2CCN(C)C2)cc1Nc1ncc(Br)c(NCCCN2CCCCC2=O)n1` [Example 61]: the IC50 is 100 to 500 nM at ULK2 kinase, 10 to 100 nM in assay [1] and 100 to 300 nM in assay [2].
Consider `CCN1CC[C@H](n2cc(Nc3ncc(Br)c(NCCCN4CCCCC4=O)n3)c(C)n2)C1` [Example 64], for which the IC50 at ULK2 kinase was above 500 nM; in assay [1], 10 to 100 nM; in assay [2] it was 100 to 300 nM.
For `Cc1nn(C2CCN(C(C)C)CC2)cc1Nc1ncc(C(F)(F)F)c(NCCCN2CCCOC2=O)n1` [Example 68] the same measures were 100 to 500 nM, 10 to 100 nM and 300 to 600 nM.
On to `Cc1nn(C2CCN(C)CC2)cc1Nc1ncc(C(F)(F)F)c(NCCCN2CCCCCC2=O)n1` [Example 79], for which the IC50 at ULK2 kinase was in the range of 1 to 25 nM; in assay [1] it was 10 to 100 nM; in assay [2], 10 to 100 nM.
For the compound `Cc1nn(CCCN2CCOCC2)cc1Nc1ncc(C(F)(F)F)c(NCCCN2CCCCCC2=O)n1` [Example 100], the IC50 lay within 100 to 500 nM at ULK2 kinase, 100 to 300 nM in assay [1] and 100 to 300 nM in assay [2].
As to `Cc1nn(C2CCN(C)CC2)cc1Nc1ncc(C(F)(F)F)c(NCCCN2CCCOCC2=O)n1` [Example 102], the IC50 is 25 to 100 nM on ULK2 kinase, 10 to 100 nM in assay [1] and 100 to 300 nM in assay [2].
Take `Cc1nn(C2CCN(C)CC2)cc1Nc1ncc(Cl)c(NCCCN2CCCOCC2=O)n1` [Example 105]: the IC50 on ULK2 kinase was above 500 nM; in assay [1] it was 100 to 300 nM; in assay [2], above 600 nM.
The like results for `Cc1nn([C@@H]2CCN(C)C2)cc1Nc1ncc(C(F)(F)F)c(NCCCN2CCCOCC2=O)n1` [Example 106] were, in that order, 100 to 500 nM, 10 to 100 nM and 100 to 300 nM.
For `CCN1CCC(n2cc(Nc3ncc(C(F)(F)F)c(NCCCN4CCCOCC4=O)n3)c(C)n2)CC1` [Example 107], the IC50 lay in the range of 100 to 500 nM on ULK2 kinase, 100 to 300 nM in assay [1] and 100 to 300 nM in assay [2].
In the case of `Cc1nn(C2CCN(C(C)C)CC2)cc1Nc1ncc(C(F)(F)F)c(NCCCN2CCCOCC2=O)n1` [Example 108], the results for the IC50 (at ULK2 kinase; in assay [1]; in assay [2]) were above 500 nM, 100 to 300 nM and 300 to 600 nM, respectively.
The like results for `Cc1nn(C2CCN(C)CC2)cc1Nc1ncc(C(F)(F)F)c(NCCCN2CCOCCC2=O)n1` [Example 127] were, in that order, 100 to 500 nM, 10 to 100 nM and 100 to 300 nM.
Regarding `CCN1CCC(n2cc(Nc3ncc(C(F)(F)F)c(NCCCN4CCOCCC4=O)n3)c(C)n2)CC1` [Example 130], the IC50 at ULK2 kinase lay in the range of 100 to 500 nM; in assay [1], 10 to 100 nM; in assay [2] it was 100 to 300 nM.
In the case of `Cc1nn(C2CCN(C(C)C)CC2)cc1Nc1ncc(C(F)(F)F)c(NCCCN2CCOCCC2=O)n1` [Example 131], the IC50 at ULK2 kinase was above 500 nM; in assay [1], 100 to 300 nM; in assay [2], 300 to 600 nM.
